Publication PMC6131161, “Adjunctive use of celecoxib with anti-tuberculosis drugs: evaluation in a whole-blood bactericidal activity model” (Scientific Reports, 2018)
Where “and” joins values, the source holds several entries; their conditions need not be identical. Equal entries are not always repeated. Entries after “also recorded” stand apart in the source; their conditions may differ.

How the values were obtained:
[1] = tested on: Mycobacterium tuberculosis (H37Rv); assay: Whole-blood bactericidal activity (WBA) assay, ex vivo, blood of dosed healthy volunteers; type: cell-based; conditions: for WBAcum(0–8) / WBAmax: mean (SD); for bactericidal activity in the WBA assay (in words): drug alone, single oral dose, over 8 hours post-dose
[2] = Plasma pharmacokinetics in healthy volunteers (LC-MS/MS, non-compartmental analysis); conditions: for AUC(0-t) / Cmax / Tmax / half-life: human, plasma, po; for AUC(0-t): AUC(0–8); for Tmax: median (min, max); for half-life: mean (SD)
[3] = clinical; conditions: human, in vivo, po, 10 mg/kg
[4] = TB drug + Celecoxib: pyrazinamide 25 mg/kg with celecoxib 400 mg oral, PZA group, n = 9
[5] = TB drug alone: pyrazinamide 25 mg/kg single oral dose, PZA group, n = 9
[6] = TB drug alone: pyrazinamide 25 mg/kg single oral dose, PZA group, n = 9, listed as PZA
[7] = 25 mg/kg, pyrazinamide levels in plasma, PZA alone, 25 mg/kg single oral dose, geometric mean (min, max)
[8] = pyrazinamide levels in plasma, PZA + C, pyrazinamide 25 mg/kg with celecoxib 400 mg oral, geometric mean (min, max)
[9] = Celecoxib alone 400 mg single oral dose, PZA group, n = 9
[10] = Celecoxib alone 400 mg single oral dose, RIF group, n = 9
[11] = celecoxib levels in plasma, PZA + C, celecoxib 400 mg with pyrazinamide 25 mg/kg oral, geometric mean (min, max)
[12] = celecoxib levels in plasma, RIF + C, celecoxib 400 mg with rifampicin 10 mg/kg oral, geometric mean (min, max)
[13] = TB drug + Celecoxib: rifampicin 10 mg/kg with celecoxib 400 mg oral, RIF group, n = 7
[14] = TB drug alone: rifampicin 10 mg/kg single oral dose, RIF group, n = 9
[15] = TB drug alone: rifampicin 10 mg/kg single oral dose, RIF group, n = 9, listed as RIF

NC(=O)c1cnccn1 [Pyrazinamide, pyrazinamide]
WBAcum(0–8), mean difference for TB drug with and without celecoxib (95% CI) ([1]; PZA group, paired data n = 9): −0.01 (−0.03, 0.00) ΔlogCFU
WBAmax, mean difference for TB drug with and without celecoxib (95% CI) ([1]; PZA group, paired data n = 9): −0.09 (−0.22, 0.04) ΔlogCFU
WBAcum(0–8) [1, 4]: 0.00 (0.01) ΔlogCFU
WBAmax [1, 4]: −0.12 (0.10) ΔlogCFU
WBAcum(0–8) [1, 5]: 0.01 ± 0.03 ΔlogCFU
WBAmax [1, 5]: −0.03 ± 0.23 ΔlogCFU
WBAcum(0–8) [1, 6]: 0.01 (0.03) ΔlogCFU
WBAmax [1, 6]: −0.03 (0.23) ΔlogCFU
bactericidal activity in the WBA assay (in words) [1]: no bactericidal activity; also recorded: appeared to be bacteriostatic
AUC(0-t) [2, 7]: 207000 ng·h/mL
Cmax [2, 7]: 35500 ng/mL
Tmax ([2]; 25 mg/kg, pyrazinamide levels in plasma, PZA alone, 25 mg/kg single oral dose): 1 h
half-life ([2]; 25 mg/kg, t1/2, pyrazinamide levels in plasma, PZA alone, 25 mg/kg single oral dose): 11.4 h
AUC(0-t) [2, 8]: 212000 ng·h/mL
Cmax [2, 8]: 35100 ng/mL
Tmax ([2]; pyrazinamide levels in plasma, PZA + C, pyrazinamide 25 mg/kg with celecoxib 400 mg oral): 1 h
half-life ([2]; t1/2, pyrazinamide levels in plasma, PZA + C, pyrazinamide 25 mg/kg with celecoxib 400 mg oral, includes 24 hour data where available): 11.2 h

Cc1ccc(-c2cc(C(F)(F)F)nn2-c2ccc(S(N)(=O)=O)cc2)cc1 [Celecoxib, celecoxib]
WBAcum(0–8) [1, 9]: 0.02 (0.01) ΔlogCFU
WBAmax [1, 9]: 0.12 (0.10) ΔlogCFU
WBAcum(0–8) ([1]; Celecoxib alone 400 mg single oral dose, RIF + PZA groups combined, n = 18, cumulative over 8 h post-dose): 0.03 ± 0.01 ΔlogCFU and 0.03 (0.01) ΔlogCFU
WBAmax ([1]; Celecoxib alone 400 mg single oral dose, RIF + PZA groups combined, n = 18, up to 8 h post-dose, negative = killing): 0.14 (0.10) ΔlogCFU
WBAcum(0–8) [1, 10]: 0.03 (0.01) ΔlogCFU
WBAmax [1, 10]: 0.17 (0.09) ΔlogCFU
bactericidal activity in the WBA assay (in words) [1]: no bactericidal activity; also recorded: no activity alone
effect of celecoxib on rifampicin or pyrazinamide drug levels (in words) ([2]; celecoxib 400 mg co-administered with rifampicin 10 mg/kg or pyrazinamide 25 mg/kg): no significant effect
Cmax and AUC(0–8hrs) of celecoxib when co-administered with the TB drugs (in words) ([2]; celecoxib 400 mg with rifampicin or pyrazinamide versus alone): non-significant trend towards lower
AUC(0–8) ([2]; celecoxib levels in plasma, C alone, celecoxib 400 mg single oral dose, geometric mean (min, max)): 5.97 (2.91, 10.25) h*mg/L
Cmax ([2]; 400 mg, celecoxib levels in plasma, C alone, celecoxib 400 mg single oral dose, geometric mean (min, max)): 1140 ng/mL
Tmax ([2]; 400 mg, celecoxib levels in plasma, C alone, celecoxib 400 mg single oral dose): 2 h
half-life ([2]; 400 mg, t1/2, celecoxib levels in plasma, C alone, celecoxib 400 mg single oral dose): 4.48 h
AUC(0-t) [2, 11]: 4230 ng·h/mL
AUC(0-t) [2, 12]: 4530 ng·h/mL
Cmax [2, 11]: 760 ng/mL
Cmax [2, 12]: 890 ng/mL
Tmax ([2]; celecoxib levels in plasma, PZA + C, celecoxib 400 mg with pyrazinamide 25 mg/kg oral): 3 h
Tmax ([2]; celecoxib levels in plasma, RIF + C, celecoxib 400 mg with rifampicin 10 mg/kg oral): 2 h
half-life ([2]; t1/2, celecoxib levels in plasma, PZA + C, celecoxib 400 mg with pyrazinamide 25 mg/kg oral, includes 24 hour data where available): 7.28 h
half-life ([2]; t1/2, celecoxib levels in plasma, RIF + C, celecoxib 400 mg with rifampicin 10 mg/kg oral, includes 24 hour data where available): 6.65 h

CO[C@H]1/C=C/O[C@@]2(C)Oc3c(C)c(O)c4c(O)c(c(/C=N/N5CCN(C)CC5)c(O)c4c3C2=O)NC(=O)/C(C)=C\C=C\[C@H](C)[C@H](O)[C@@H](C)[C@@H](O)[C@@H](C)[C@H](OC(C)=O)[C@@H]1C [Rifampicin, rifampicin]
WBAcum(0–8), mean difference for TB drug with and without celecoxib (95% CI) ([1]; RIF group, paired data n = 7): 0.00 (−0.02, 0.02) ΔlogCFU
WBAmax, mean difference for TB drug with and without celecoxib (95% CI) ([1]; RIF group, paired data n = 7): −0.03 (−0.25, 0.18) ΔlogCFU
WBAcum(0–8) [1, 13]: −0.22 (0.03) ΔlogCFU
WBAmax [1, 13]: −2.51 (0.23) ΔlogCFU
WBAcum(0–8) [1, 14]: −0.22 ± 0.02 ΔlogCFU
WBAmax [1, 14]: −2.48 ± 0.24 ΔlogCFU
WBAcum(0–8) [1, 15]: −0.22 (0.02) ΔlogCFU
WBAmax [1, 15]: −2.48 (0.24) ΔlogCFU
bactericidal activity in the WBA assay (in words) [1]: strong bactericidal activity
AUC(0-t) ([3]; AUC(0–8)): 92300 ng·h/mL
Cmax ([3]; Cmax): 19300 ng/mL
Tmax ([3]; Tmax): 1 h
